Results taken from article PMC3134859, “Chemical Stability of New Acyclovir Analogues with Peptidomimetics” (Scientia Pharmaceutica, 2011).
Values joined by “and” are separate entries in the source; they are usually repeats but may differ in a detail not shown here. Equal values may be shown once. Read-outs that look alike come from different tables or passages of the source.

Experiments:
[1] = cited from earlier work
[2] = cited from earlier work; remark: listed apart in the source
[3] = Chemical stability (hydrolysis) of acyclovir esters in aqueous buffer, unchanged ester quantified by HPLC; format: physicochemical; settings: for pH=1, t½, h: pH 1.0 (0.1 M HCl); for pH=1, t½, h / pH=7.4, t½, h: 37°C, decomposition half-life; for chemical stability at pH 1 (in words): pH 1.0, 37°C, acidic conditions; for pH=7.4, t½, h: pH 7.4 (phosphate buffer); for chemical stability at pH 7.4 (in words): pH 7.4, 37°C
Protocol: It was established that, under the described experimental conditions, some esters underwent decomposition by hydrolysis. The hydrolysis followed apparent first order kinetics, and the rate constants (K) were obtained as slopes from the semi-logarithmic plots of the unchanged ester concentration versus time. The chemical stability was assessed by means of the decomposition half-lives: t1/2=ln2/K
Chromatography was carried out isocratically, on a modular KNAUER HPLC system (Germany), consisting of a Smartline Pump 1000, a Smartline Manager 5000 solvent degasser, an injector with a 20 μl loop and a Smartline UV Detector 2600 diode array. The analyses were controlled and the data were acquired with EuroChrom software. The mobile phase consisted of acetonitrile/water in a ratio of 30:70 or 50:50 v/v depending on the polarity of the compound and a flow rate 1 ml/min was used. The detection was performed at relevant λmax for the respective compound (range 252–262 nm).
A single chromatographic method was used to detect the studied acyclovir esters with thiazole rings containing amino acids (Gly, Ala, Val, Leu) in aqueous buffer solutions at pH 1.0 (0.1 M HCl) and pH 7.4 (phosphate buffer). Twenty microlitres of each sample were injected into a reverse phase HPLC C18 column. The mobile phase consisted of acetonitrile/water at a ratio of 30:70 or 50:50 v/v depending on the polarity of the compound. The analyses of the esters of acyclovir with amino acid (Gly, Ala, Val, Leu) containing thiazole rings were validated. The specificity of the method was investigated by observing potential interference between the esters of acyclovir and its parent drug, acyclovir. No interfering peaks were presented in the chromatograms. The linearity of the relationship between the peak area and concentration was determined by analysing six standard solutions in a concentration range of 0.1–1.0 mmol/l. For all analytes, the relationship between the peak area ratio of the drug to the internal standard and concentration was linear over the entire examined concentration range. The correlation coefficients of the calibration curves were greater than 0.997.
Hydrolysis of acyclovir esters with thiazole rings containing amino acids (Gly, Ala, Val, Leu) was studied at pH 1.0 (HCl) and pH 7.4 (phosphate buffered saline). Stock solutions of the prodrugs were prepared and used immediately for stability studies. Aliquots (9.8 ml) of the buffer were placed in a screw-capped vial and allowed equilibrate at 37°C. A prodrug stock solution (0.2 ml) was added to the buffer. The vial was placed in a constant shaker bath set at 37°C and 60 rpm. Each sample was directly analysed by HPLC.

[4] = tested on: HSV-2; parameters: method as in PMID 19400144; settings: cited from earlier work
[5] = tested on: HSV-1; parameters: method as in PMID 19400144; settings: cited from earlier work
[6] = cited from earlier work; remark: listed apart in the source

Structure (SMILES) | pH=1, t½, h [3] | chemical stability at pH 1 (in words) [3] | pH=7.4, t½, h [3] | chemical stability at pH 7.4 (in words) [3] | effect against HSV-2 [4] | also measured
CC(C)[C@H](N)C(=O)OCCOCn1cnc2c(=O)[nH]c(N)nc21 [valacyclovir] |  |  |  |  |  | t½ at pH 7.4 ([1]; pH 7.4, 37°C): 13 h; t½ at pH 7.4 ([1]; pH 7.4): 13 h; bioavailability relative to acyclovir ([2]; oral administration): four-fold higher
CC(C)C(NC(=O)OC(C)(C)C)c1nc(C(=O)OCCOCn2cnc3c(=O)[nH]c(N)nc32)cs1 (stereo not drawn) [compound 3, Boc-2-Val-thiazole-acyclovir] | 0.7±0.1 h | less stable | 17 h and 17.8±0.9 h | highest chemical stability | did not exhibit a satisfying effect | effect against HSV-1 [5]: did not exhibit a satisfying effect; chemical stability at pH 7.4 (in words) ([3]; listed as Valthiazole-acyclovir): remarkable
Nc1nc2c(ncn2COCCO)c(=O)[nH]1 [ACV, 9-[(2-hydroxyethoxy)methyl]guanine] |  |  |  |  |  | bioavailability by oral administration [2]: 14%; aqueous solubility [6]: low aqueous solubility

More lines, main results first:

pH=1, t½, h [3] | chemical stability at pH 1 (in words) [3] | pH=7.4, t½, h [3] | chemical stability at pH 7.4 (in words) [3] | Structure (SMILES) | effect against HSV-2 [4] | also measured
1.1±0.1 h | less stable | 5.9±0.5 h | lower stability | CC(C)(C)OC(=O)NCc1nc(C(=O)OCCOCn2cnc3c(=O)[nH]c(N)nc32)cs1 [compound 1, Boc-2-aminomethyl-thiazole-acyclovir] |  | chemical stability at pH 1 (in words) ([3]; listed as Gly-thiazole): rather unstable
1.3±0.1 h | rather unstable | 7.8±0.5 h | satisfying chemical stability | CC(NC(=O)OC(C)(C)C)c1nc(C(=O)OCCOCn2cnc3c(=O)[nH]c(N)nc32)cs1 (stereo not drawn) [compound 2, Boc-2-Ala-thiazole-acyclovir] | appreciable effect | effect against HSV-2 ([4]; listed as Ala-thiazolyl ester of acyclovir): prominent activity
2.6±0.2 h | rather unstable | 5.0±0.4 h | lower stability | CC(C)CC(NC(=O)OC(C)(C)C)c1nc(C(=O)OCCOCn2cnc3c(=O)[nH]c(N)nc32)cs1 (stereo not drawn) [compound 4, Boc-2-Leu-thiazole-acyclovir] |  | 
